Experimental data from PMC5578999, “Novel quinolone chalcones targeting colchicine-binding pocket kill multidrug-resistant cancer cells by inhibiting tubulin activity and MRP1 function” (Scientific Reports, 2017).

Key:
Assay in all cases: NCI-60 SRB screen
Assay type in all cases: cell-based
CCRF-CEM = test system: CCRF-CEM
Source text: (§1) Supplementary Figure l egend
(§2) 10μ M of CTR-20 was used to examine the drug’s efficac y against the NC I-60 cancer cell li nes including: six leukemia cell lines, nine non- small cell lung cancer cell lines, seven color ect al cancer cell lines, six CNS cancer cell lines, nine melanoma cell lines, seven ovari an can cer cell lines, seven ren al can cer cell lines, two prostate cancer cell lines and six breast cancer cell lines. The scr eenin g was car r ied out b y the US National Cancer Institute (NC I) us i n g a sulforhodamine B (SRB) colorimetric assay. […]
(§3) out by the NC I using five different doses of CTR -20.

EKVX = test system: EKVX
Source text: as §1, §2, §3

HL-60(TB) = test system: HL-60(TB)
Source text: as §1, §2, §3

MCF7 = test system: MCF7
Source text: as §1, §2, §3

NCI-H322M = test system: NCI-H322M
Source text: as §1, §2, §3

NCI-H522 = test system: NCI-H522
Source text: as §1, §2, §3

OVCAR-4 = test system: OVCAR-4
Source text: as §1, §2, §3

PC-3 = test system: PC-3
Source text: as §1, §2, §3

RPMI-8226 = test system: RPMI-8226
Source text: as §1, §2, §3

SF-268 = test system: SF-268
Source text: as §1, §2, §3

SK-MEL-2 = test system: SK-MEL-2
Source text: as §1, §2, §3

SK-OV-3 = test system: SK-OV-3
Source text: as §1, §2, §3

[1] = Homo sapiens, read-out: LC50 (the source's name)

In the case of COc1ccc2[nH]c(=O)c(/C=C/C(=O)c3ccccc3OC)cc2c1 [CTR-20, (E)-6-Methoxy-3-(3-(2-methoxyphenyl)-3-oxoprop-1-enyl) quinolin-2(1H)-one], the Log10GI50 (CCRF-CEM) is reported as -6.41 Molar, the Log10LC50 (CCRF-CEM) is reported as > -4.00 Molar and the Log10TGI (CCRF-CEM) is reported as > -4.00 Molar. For the same molecule, the TGI (CCRF-CEM) was > 1.00E-4 Molar, the “Growth Percent” value (CCRF-CEM; 1.00E-5 Molar) was 7.53% and the GI50 (CCRF-CEM; Homo sapiens) was 0.392 µM. For the same molecule, the LC50 (concentration causing 50% net cell kill) (CCRF-CEM; Homo sapiens) was > 100 µM, the “Percent Growth” value (CCRF-CEM; Log10 Concentration -4.0) was 1% and the “Percent Growth” value (CCRF-CEM; Log10 Concentration -5.0) was 6%. For the same molecule, the “Percent Growth” value (CCRF-CEM; Log10 Concentration -6.0) was 19%, the “Percent Growth” value (CCRF-CEM; Log10 Concentration -7.0) was 95% and the “Percent Growth” value (CCRF-CEM; Log10 Concentration -8.0) was 99%. It also gave a Log10GI50 (EKVX) of -5.69 Molar, a Log10LC50 (EKVX) of -4.25 Molar and a Log10TGI (EKVX) of -4.98 Molar. The TGI (EKVX) was 1.05E-5 Molar, the “Growth Percent” value (EKVX; 1.00E-5 Molar) was 37.76% and the GI50 (EKVX; Homo sapiens) was 2.05 µM. For the same molecule, the CC50 (EKVX; [1]) was 55.8 µM, the “Percent Growth” value (EKVX; Log10 Concentration -4.0) was -67% and the “Percent Growth” value (EKVX; Log10 Concentration -5.0) was 1%. For the same molecule, the “Percent Growth” value (EKVX; Log10 Concentration -6.0) was 72%, the “Percent Growth” value (EKVX; Log10 Concentration -7.0) was 91% and the “Percent Growth” value (EKVX; Log10 Concentration -8.0) was 86%. The Log10GI50 (HL-60(TB)) was -6.69 Molar, the Log10LC50 (HL-60(TB)) was > -4.00 Molar and the Log10TGI (HL-60(TB)) was -6.05 Molar. The TGI (HL-60(TB)) was 8.83E-7 Molar, the “Growth Percent” value (HL-60(TB); 1.00E-5 Molar) was -2.46% and the GI50 (HL-60(TB); Homo sapiens) was 0.206 µM. The CC50 (HL-60(TB); [1]) was > 100 µM, the “Percent Growth” value (HL-60(TB); Log10 Concentration -4.0) was -37% and the “Percent Growth” value (HL-60(TB); Log10 Concentration -5.0) was -12%. The “Percent Growth” value (HL-60(TB); Log10 Concentration -6.0) was -4%, the “Percent Growth” value (HL-60(TB); Log10 Concentration -7.0) was 75% and the “Percent Growth” value (HL-60(TB); Log10 Concentration -8.0) was 97%. The Log10GI50 (MCF7) was -6.51 Molar, the Log10LC50 (MCF7) was > -4.00 Molar and the Log10TGI (MCF7) was -5.13 Molar. The TGI (MCF7) was 7.48E-6 Molar, the “Growth Percent” value (MCF7; 1.00E-5 Molar) was 10.02% and the GI50 (MCF7; Homo sapiens) was 0.312 µM. The CC50 (MCF7; [1]) was > 100 µM, the “Percent Growth” value (MCF7; Log10 Concentration -4.0) was -44% and the “Percent Growth” value (MCF7; Log10 Concentration -5.0) was -2%. For the same molecule, the “Percent Growth” value (MCF7; Log10 Concentration -6.0) was 16%, the “Percent Growth” value (MCF7; Log10 Concentration -7.0) was 83% and the “Percent Growth” value (MCF7; Log10 Concentration -8.0) was 86%. The Log10GI50 (NCI-H322M) was -5.62 Molar, the Log10LC50 (NCI-H322M) was -4.48 Molar and the Log10TGI (NCI-H322M) was -4.98 Molar. For the same molecule, the TGI (NCI-H322M) was 1.04E-5 Molar, the “Growth Percent” value (NCI-H322M; 1.00E-5 Molar) was 18.31% and the GI50 (NCI-H322M; Homo sapiens) was 2.4 µM. For the same molecule, the CC50 (NCI-H322M; [1]) was 33.5 µM, the “Percent Growth” value (NCI-H322M; Log10 Concentration -4.0) was -97% and the “Percent Growth” value (NCI-H322M; Log10 Concentration -5.0) was 2%. For the same molecule, the “Percent Growth” value (NCI-H322M; Log10 Concentration -6.0) was 80%, the “Percent Growth” value (NCI-H322M; Log10 Concentration -7.0) was 93% and the “Percent Growth” value (NCI-H322M; Log10 Concentration -8.0) was 94%. For the same molecule, the Log10GI50 (NCI-H522) was -6.45 Molar, the Log10LC50 (NCI-H522) was -4.89 Molar and the Log10TGI (NCI-H522) was -5.69 Molar. The TGI (NCI-H522) was 2.06E-6 Molar, the “Growth Percent” value (NCI-H522; 1.00E-5 Molar) was 3.93% and the GI50 (NCI-H522; Homo sapiens) was 0.352 µM. For the same molecule, the LC50 (concentration causing 50% net cell kill) (NCI-H522; Homo sapiens) was 12.9 µM, the “Percent Growth” value (NCI-H522; Log10 Concentration -4.0) was -88% and the “Percent Growth” value (NCI-H522; Log10 Concentration -5.0) was -45%. The “Percent Growth” value (NCI-H522; Log10 Concentration -6.0) was 21%, the “Percent Growth” value (NCI-H522; Log10 Concentration -7.0) was 85% and the “Percent Growth” value (NCI-H522; Log10 Concentration -8.0) was 87%. It also gave a Log10GI50 (OVCAR-4) of -5.39 Molar, a Log10LC50 (OVCAR-4) of -4.11 Molar and a Log10TGI (OVCAR-4) of -4.63 Molar. The TGI (OVCAR-4) was 2.32E-5 Molar, the “Growth Percent” value (OVCAR-4; 1.00E-5 Molar) was 50.80% and the GI50 (OVCAR-4; Homo sapiens) was 4.07 µM. The CC50 (OVCAR-4; [1]) was 76.9 µM, the “Percent Growth” value (OVCAR-4; Log10 Concentration -4.0) was -61% and the “Percent Growth” value (OVCAR-4; Log10 Concentration -5.0) was 35%. The “Percent Growth” value (OVCAR-4; Log10 Concentration -6.0) was 73%, the “Percent Growth” value (OVCAR-4; Log10 Concentration -7.0) was 95% and the “Percent Growth” value (OVCAR-4; Log10 Concentration -8.0) was 94%. For the same molecule, the Log10GI50 (PC-3) was -6.07 Molar, the Log10LC50 (PC-3) was -4.59 Molar and the Log10TGI (PC-3) was -5.43 Molar. The TGI (PC-3) was 3.75E-6 Molar, the “Growth Percent” value (PC-3; 1.00E-5 Molar) was 22.06% and the GI50 (PC-3; Homo sapiens) was 0.842 µM. For the same molecule, the CC50 (PC-3; [1]) was 25.9 µM, the “Percent Growth” value (PC-3; Log10 Concentration -4.0) was -73% and the “Percent Growth” value (PC-3; Log10 Concentration -5.0) was -34%. The “Percent Growth” value (PC-3; Log10 Concentration -6.0) was 46%, the “Percent Growth” value (PC-3; Log10 Concentration -7.0) was 102% and the “Percent Growth” value (PC-3; Log10 Concentration -8.0) was 104%. For the same molecule, the Log10GI50 (RPMI-8226) was -6.41 Molar, the Log10LC50 (RPMI-8226) was > -4.00 Molar and the Log10TGI (RPMI-8226) was -5.66 Molar. The TGI (RPMI-8226) was 2.21E-6 Molar, the “Growth Percent” value (RPMI-8226; 1.00E-5 Molar) was 5.61% and the GI50 (RPMI-8226; Homo sapiens) was 0.385 µM. For the same molecule, the CC50 (RPMI-8226; [1]) was > 100 µM, the “Percent Growth” value (RPMI-8226; Log10 Concentration -4.0) was -37% and the “Percent Growth” value (RPMI-8226; Log10 Concentration -5.0) was -20%. The “Percent Growth” value (RPMI-8226; Log10 Concentration -6.0) was 10%, the “Percent Growth” value (RPMI-8226; Log10 Concentration -7.0) was 106% and the “Percent Growth” value (RPMI-8226; Log10 Concentration -8.0) was 113%. For the same molecule, the Log10GI50 (SF-268) was -6.16 Molar, the Log10LC50 (SF-268) was -4.15 Molar and the Log10TGI (SF-268) was -4.98 Molar. The TGI (SF-268) was 1.05E-5 Molar, the “Growth Percent” value (SF-268; 1.00E-5 Molar) was 9.36% and the GI50 (SF-268; Homo sapiens) was 0.69 µM. The CC50 (SF-268; [1]) was 70.4 µM, the “Percent Growth” value (SF-268; Log10 Concentration -4.0) was -59% and the “Percent Growth” value (SF-268; Log10 Concentration -5.0) was 1%. The “Percent Growth” value (SF-268; Log10 Concentration -6.0) was 42%, the “Percent Growth” value (SF-268; Log10 Concentration -7.0) was 93% and the “Percent Growth” value (SF-268; Log10 Concentration -8.0) was 92%. For the same molecule, the Log10GI50 (SK-MEL-2) was -6.16 Molar, the Log10LC50 (SK-MEL-2) was -4.54 Molar and the Log10TGI (SK-MEL-2) was -5.36 Molar. The TGI (SK-MEL-2) was 4.39E-6 Molar, the “Growth Percent” value (SK-MEL-2; 1.00E-5 Molar) was -2.52% and the GI50 (SK-MEL-2; Homo sapiens) was 0.694 µM. The CC50 (SK-MEL-2; [1]) was 29.2 µM, the “Percent Growth” value (SK-MEL-2; Log10 Concentration -4.0) was -81% and the “Percent Growth” value (SK-MEL-2; Log10 Concentration -5.0) was -23%. The “Percent Growth” value (SK-MEL-2; Log10 Concentration -6.0) was 41%, the “Percent Growth” value (SK-MEL-2; Log10 Concentration -7.0) was 99% and the “Percent Growth” value (SK-MEL-2; Log10 Concentration -8.0) was 95%. The Log10GI50 (SK-OV-3) was -5.65 Molar, the Log10LC50 (SK-OV-3) was -4.44 Molar and the Log10TGI (SK-OV-3) was -4.89 Molar. The TGI (SK-OV-3) was 1.28E-5 Molar, the “Growth Percent” value (SK-OV-3; 1.00E-5 Molar) was 6.12% and the GI50 (SK-OV-3; Homo sapiens) was 2.23 µM. The CC50 (SK-OV-3; [1]) was 36.2 µM, the “Percent Growth” value (SK-OV-3; Log10 Concentration -4.0) was -99% and the “Percent Growth” value (SK-OV-3; Log10 Concentration -5.0) was 12%. For the same molecule, the “Percent Growth” value (SK-OV-3; Log10 Concentration -6.0) was 70%, the “Percent Growth” value (SK-OV-3; Log10 Concentration -7.0) was 99% and the “Percent Growth” value (SK-OV-3; Log10 Concentration -8.0) was 87%.
